In one assay the target is GAPDH-Siah1 binding (Homo sapiens, UniProt P04406). The experiment in a line: in vitro binding of purified recombinant GAPDH and GST-Siah1 (GST-agarose pull down, western blot). Conditions: GAPDH pre-incubated with compound. As to the method: FIG. 4A-4D depict a deprenyl derivative compound of the present invention that blocks GAPDH-Siah1 binding. […] FIG. 4B is a graph depicting inhibition of GAPDH-Siah1 binding by the RR compound in vitro. GAPDH was pre-incubated with the RR compound, then GST-Siah1 was added and binding was assessed by GST-agarose pull down followed by western blotting. The graph represents quantification results of the blots from 6 experiments. FIG. 4C is a pair of graphs depicting in vitro MAO activity. FIG. 4D is a bar graph showing glycolytic activity in cultured rat neonatal cardiac cells exposed to 1 nM RR for 48 hours *p<0.05.
To test whether TAC elicits nuclear translocation of GAPDH and activates p300, a specific tool to intervene GAPDH nuclear translocation is needed. Several structural analogues of deprenyl that blocked GAPDH-Siah1 binding and the nuclear GAPDH cascade were previously screened (data not shown).
Background: A western blot detects proteins with antibodies after separation by electrophoresis.

Assay [1] concerns TAC hearts. Put plainly: TAC model, delayed RR treatment of pre-existing cardiac hypertrophy. In kind it is in vivo, mouse. As to the method: Cardiac animal models: All protocols were approved by Animal Care and Use Committee of the Johns Hopkins University. TAC was performed in C57/BL6 mice (Jackson Laboratory) as previously described in (Nat. Med., 11, 214-222 (2005), J. Clin. Invest., 119, 408-420 (2009), J. Am. Coll. Cardiol., 56, 2021-2030 (2010)). Physiological analysis, histological analysis: Echocardiography and pressure-volume loop studies were performed as described previously (Takimoto et al., Nat. Med., 11, 214-222 (2005)). 10% formalin fixed heart samples were embedded in paraffin, sectioned and stained for myocyte size (WGA staining) and fibrosis (Masson Trichrome staining) as described previously (Zhang et al., J. Am. Coll. Cardiol., 56, 2021-2030 (2010)). Isolated adult cardiac myocyte or rat neonatal cardiac myocyte was fixed with 50% methanol/50% acetone and stained with antibodies against GAPDH (Millipore), sulphonated GAPDH or HA as previously described. Protein and RNA analysis: Total RNA was isolated from cells or left ventricular myocardium with Trizol (Molecular Research Center, Inc, Cincinnati, Ohio) and analyzed by real-time polymerase chain reaction (PCR) with TaqMan probes (Applied Biosystems, Foster City, Calif.). Results were normalized to GAPDH or 18S RNA. Cell lysates or nuclear extracts were obtained from cultured myocytes or ventricular tissue, resolved by SDS-polyacrylamide gel electrophoresis, subjected to immunoblotting and imaged by chemiluminescence as previously described. In most clinical settings, medication and treatment starts only after pathological changes occur at least to some extent.

The subject of assay [2] is TAC hearts. Put plainly: TAC chronic pressure-overload cardiac hypertrophy model, treatment from time of constriction. It counts as in vivo, mouse. The method, then:
Cardiac animal models: All protocols were approved by Animal Care and Use Committee of the Johns Hopkins University. TAC was performed in C57/BL6 mice (Jackson Laboratory) as previously described in (Nat. Med., 11, 214-222 (2005), J. Clin. Invest., 119, 408-420 (2009), J. Am. Coll. Cardiol., 56, 2021-2030 (2010)). Physiological analysis, histological analysis: Echocardiography and pressure-volume loop studies were performed as described previously (Takimoto et al., Nat. Med., 11, 214-222 (2005)). 10% formalin fixed heart samples were embedded in paraffin, sectioned and stained for myocyte size (WGA staining) and fibrosis (Masson Trichrome staining) as described previously (Zhang et al., J. Am. Coll. Cardiol., 56, 2021-2030 (2010)). Isolated adult cardiac myocyte or rat neonatal cardiac myocyte was fixed with 50% methanol/50% acetone and stained with antibodies against GAPDH (Millipore), sulphonated GAPDH or HA as previously described. HAT activity assay, MEF2 activity assay, MAO activity assay, GAPDH assay: p300 HAT activity was measured using commercially available kit (Biovision), using immunoprecipitation with p300 antibody (Circulation 118, 934-946 (2008)). MEF2 activity was measured using luciferase reporter assay (Panomics). MAO activity assay was measured using commercially available kit (Peninsula Laboratory). GAPDH activity was measured as previously described in (Nat. Cell Biol., 7, 665-674 (2005)). PUMA mRNA expression was determined by real time RT-PCR using SYBR Green fluorescence on a LightCycler instrument (Roche Applied Science). Expression of the gene of interest was divided by the housekeeping gene glyceraldehyde-3-phosphate dehydrogenase (GAPDH) and presented as fold induction of control. Protein and RNA analysis: Total RNA was isolated from cells or left ventricular myocardium with Trizol (Molecular Research Center, Inc, Cincinnati, Ohio) and analyzed by real-time polymerase chain reaction (PCR) with TaqMan probes (Applied Biosystems, Foster City, Calif.). Results were normalized to GAPDH or 18S RNA. Cell lysates or nuclear extracts were obtained from cultured myocytes or ventricular tissue, resolved by SDS-polyacrylamide gel electrophoresis, subjected to immunoblotting and imaged by chemiluminescence as previously described. To understand the pathology underlying heart hypertrophy, chronic pressure overload induced by transverse aorta constriction (TAC) is used as an established experimental animal model. Heart hypertrophy is evident at 7 to 10 days after the constriction, which leads to irreversible functional defects in 9 weeks. In the present study, the TAC model was employed and identified GAPDH as a key conveyer of the pathological stress signal to nuclear p300, resulting in disruption of critical homeostasis in vivo. In the present invention, the significance of the nuclear GAPDH cascade in vivo has been shown. With this understanding there is also provided novel therapeutic methods of treatment of stress induced disorders, including, for example, cardiac hypertrophy, which are urgent and very important medical needs.

Setting [3] is: 0.25 mg/kg/day i.p. from constriction, measured after 10th day (TAC10).
Where [4] appears, read: pressure volume loop analysis, RR versus vehicle treatment.

SMILES strings stand for the structures.

GAPDH-Siah1 binding, sequence (P04406 whole entry): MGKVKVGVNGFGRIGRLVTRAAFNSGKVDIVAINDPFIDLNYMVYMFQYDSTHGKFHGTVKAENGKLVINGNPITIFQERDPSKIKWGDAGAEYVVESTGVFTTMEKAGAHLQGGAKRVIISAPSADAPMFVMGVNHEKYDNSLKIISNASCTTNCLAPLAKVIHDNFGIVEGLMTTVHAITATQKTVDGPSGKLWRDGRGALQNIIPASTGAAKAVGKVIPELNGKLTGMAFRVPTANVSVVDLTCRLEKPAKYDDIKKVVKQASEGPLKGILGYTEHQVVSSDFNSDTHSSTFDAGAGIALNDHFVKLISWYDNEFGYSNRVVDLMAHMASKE

As for `C#CCN1[C@H](C)Cc2ccccc2[C@H]1C` [RR, (1R,3R)-1,3-dimethyl-2-propargyl-1,2,3,4-tetrahydroisoquinoline], the “GAPDH-Siah1 interaction in vitro” value at GAPDH-Siah1 binding is listed as “blocked the interaction at nanomolar concentrations”. In addition, the “expression profile of cardiac fetal gene (BNP)” value in the assay with TAC hearts [1] (delayed treatment, RR-treated versus vehicle group) is “significant improvement”. For the same compound, in the assay with TAC hearts [1] (treatment initiated 1 week after TAC, about two weeks), the “cardiac myocyte size (terminal postmortem assessment)” value is recorded as “smaller”. Besides, in the assay with TAC hearts [1] (treatment initiated 1 week after TAC, about two weeks of treatment, echocardiogram), the “further LV mass increase from sustained pressure overload” value is “significantly blocked”. In addition, in the assay with TAC hearts [2] (setting [3]), the “levels of nuclear GAPDH in TAC hearts” value was “dramatically reduced” and the “levels of p300 HAT activity in TAC hearts” value is given as “dramatically reduced”. Moreover, in the assay with TAC hearts [2] (0.25 mg/kg/day i.p., TAC), the “cardiac hypertrophy remodeling assessed by cardiac myocyte cell size” value was “ameliorated”, the “cardiac hypertrophy remodeling assessed by fibrosis” value is reported as “ameliorated” and the “cardiac hypertrophy remodeling assessed by heart weight” value was “ameliorated”. For the same compound, in the assay on TAC hearts [2] (echocardiogram), the “TAC-induced left ventricular dilatation (LV-EDD)” value is on record as “significantly inhibited” and the “TAC-induced reduction in Fractional Shortening (% FS)” value was “significantly inhibited”. For the same compound, the “cardiac performance despite sustained pressure-overload stress” value in the assay with TAC hearts [2] (invasive hemodynamic study, pressure volume loop analysis) is “improvement of cardiac performance”. In addition, in the assay with TAC hearts [2] (myocardial mRNA, TAC), the “pathological gene expression profile: down-regulation of calcium handling proteins” value was “significantly improved or normalized” and the “pathological gene expression profile: fetal gene re-expression (BNP, β-MHC)” value was “significantly improved or normalized”. In the assay with TAC hearts [2] (setting [4]), the “diastolic relaxation properties (Tau)” value is listed as “significantly better” and the “systolic function (dPdtmx)” value is on record as “significantly better”.
